These results are taken from patent US9249087B2, “HDAC inhibitors and therapeutic methods using the same” (THE BOARD OF TRUSTEES OF THE UNIVERSITY OF ILLINOIS, priority 2011, dated 2016).

Where a name gives a salt, the structure may show the parent alone. Read-outs that look alike come from different tables or passages of the source.

What all share (format): biochemical
One assay deals with Human HDAC1 (Homo sapiens (Human), UniProt Q13547). The experiment in a line: HDAC1 fluorogenic peptide deacetylation inhibition assay.
Another assay concerns the target Human HDAC6 (Homo sapiens (Human), UniProt Q9UBN7). The experiment in a line: HDAC6 fluorogenic peptide deacetylation inhibition assay. To be noted: for HDAC6 Selectivity (HDAC1/HDAC6): ratio HDAC1 IC50/HDAC6 IC50; for BEI: binding efficiency index, BEI=pIC50/MW, MW in kDa.
A further assay has as its target HDAC2 (Homo sapiens (Human), UniProt Q92769). Put plainly: HDAC2 fluorogenic peptide deacetylation inhibition assay. To be noted: average of two experiments; read-out: HDAC Isoform IC50 (μM) 2.
The next assay addresses HDAC8 (Homo sapiens (Human), UniProt Q9BY41). Put plainly: HDAC8 inhibition assay (fluorogenic diacyl peptide).
In the next assay the target is HDAC9 (Homo sapiens (Human), UniProt Q9UKV0). The experiment in a line: HDAC9 inhibition assay (Acetyl-Lys(trifluoroacetyl)-AMC substrate). To be noted: average of two experiments; read-out: HDAC Isoform IC50 (μM) 9.
Where [1] appears, read: average of two experiments, read-out: HDAC Isoform IC50 (μM) 1.
The mark [2] stands for this setting: average of two experiments, read-out: HDAC Isoform IC50 (μM) 6.
The mark [3] stands for this setting: average of two experiments, read-out: HDAC Isoform IC50 (μM) 8.
Setting [4] is: Table 3, mean of two experiments ± standard deviation, read-out: HDAC8 IC50.
Where [5] appears, read: Table 3, mean of two experiments ± standard deviation, read-out: HDAC1 IC50.
The mark [6] stands for this setting: Table 3, mean of two experiments ± standard deviation, read-out: HDAC6 IC50.

Sequence of Human HDAC1 (Q13547 whole entry): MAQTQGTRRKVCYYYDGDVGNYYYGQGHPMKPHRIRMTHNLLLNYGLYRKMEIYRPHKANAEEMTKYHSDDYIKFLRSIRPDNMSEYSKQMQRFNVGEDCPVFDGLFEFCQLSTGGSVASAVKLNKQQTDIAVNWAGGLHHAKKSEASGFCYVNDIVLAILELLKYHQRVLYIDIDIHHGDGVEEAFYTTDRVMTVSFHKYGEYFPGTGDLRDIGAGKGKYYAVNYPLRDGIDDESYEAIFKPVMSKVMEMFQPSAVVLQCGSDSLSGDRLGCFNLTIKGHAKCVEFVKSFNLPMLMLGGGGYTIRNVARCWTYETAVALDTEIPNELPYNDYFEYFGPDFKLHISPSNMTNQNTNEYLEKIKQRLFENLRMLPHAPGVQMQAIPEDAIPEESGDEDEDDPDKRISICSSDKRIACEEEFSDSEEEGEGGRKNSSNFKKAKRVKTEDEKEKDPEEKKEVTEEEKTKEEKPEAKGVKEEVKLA
Sequence of HDAC9 (Q9UKV0 whole entry, canonical isoform): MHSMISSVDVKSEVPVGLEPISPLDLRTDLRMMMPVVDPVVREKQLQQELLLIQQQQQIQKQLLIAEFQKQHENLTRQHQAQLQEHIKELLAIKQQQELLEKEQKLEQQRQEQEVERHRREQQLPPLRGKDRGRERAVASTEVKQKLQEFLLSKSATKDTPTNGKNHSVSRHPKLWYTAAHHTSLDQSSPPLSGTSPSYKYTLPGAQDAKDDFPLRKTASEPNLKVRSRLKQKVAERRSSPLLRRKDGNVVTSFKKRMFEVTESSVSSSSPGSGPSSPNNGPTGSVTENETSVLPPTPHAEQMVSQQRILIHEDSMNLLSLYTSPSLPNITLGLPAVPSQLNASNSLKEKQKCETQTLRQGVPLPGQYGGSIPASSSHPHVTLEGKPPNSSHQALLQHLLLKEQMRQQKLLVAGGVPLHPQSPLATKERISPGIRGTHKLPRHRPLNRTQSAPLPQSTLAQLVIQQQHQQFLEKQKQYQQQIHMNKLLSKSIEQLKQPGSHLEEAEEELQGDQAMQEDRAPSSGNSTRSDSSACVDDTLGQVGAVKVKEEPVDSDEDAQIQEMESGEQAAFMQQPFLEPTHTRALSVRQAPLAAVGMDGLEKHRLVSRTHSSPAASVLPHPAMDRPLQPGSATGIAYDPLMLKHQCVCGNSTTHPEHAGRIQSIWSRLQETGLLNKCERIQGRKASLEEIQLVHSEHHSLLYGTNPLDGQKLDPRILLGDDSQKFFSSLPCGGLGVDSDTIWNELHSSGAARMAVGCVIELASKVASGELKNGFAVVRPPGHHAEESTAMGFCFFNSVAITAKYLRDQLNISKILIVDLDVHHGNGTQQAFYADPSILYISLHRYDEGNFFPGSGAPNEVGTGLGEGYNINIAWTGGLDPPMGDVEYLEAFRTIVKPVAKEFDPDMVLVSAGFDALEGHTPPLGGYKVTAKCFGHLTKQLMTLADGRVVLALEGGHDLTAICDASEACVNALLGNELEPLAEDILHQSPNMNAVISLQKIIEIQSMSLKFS
Sequence of HDAC2 (Q92769 whole entry, canonical isoform): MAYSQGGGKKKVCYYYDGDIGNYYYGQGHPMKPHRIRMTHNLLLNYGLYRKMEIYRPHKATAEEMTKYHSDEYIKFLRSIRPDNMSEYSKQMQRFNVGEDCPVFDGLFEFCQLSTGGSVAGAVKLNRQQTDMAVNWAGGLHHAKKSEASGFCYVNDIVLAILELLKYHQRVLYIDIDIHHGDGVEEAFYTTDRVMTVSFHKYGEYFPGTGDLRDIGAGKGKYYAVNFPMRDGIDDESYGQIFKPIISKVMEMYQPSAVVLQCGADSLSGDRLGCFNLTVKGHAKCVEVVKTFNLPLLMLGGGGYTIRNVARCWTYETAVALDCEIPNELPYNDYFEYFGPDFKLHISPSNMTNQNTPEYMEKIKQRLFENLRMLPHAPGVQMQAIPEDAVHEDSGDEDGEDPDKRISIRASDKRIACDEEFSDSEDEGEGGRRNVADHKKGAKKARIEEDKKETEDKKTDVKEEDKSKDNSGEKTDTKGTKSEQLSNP
Sequence of HDAC8 (Q9BY41 whole entry, canonical isoform): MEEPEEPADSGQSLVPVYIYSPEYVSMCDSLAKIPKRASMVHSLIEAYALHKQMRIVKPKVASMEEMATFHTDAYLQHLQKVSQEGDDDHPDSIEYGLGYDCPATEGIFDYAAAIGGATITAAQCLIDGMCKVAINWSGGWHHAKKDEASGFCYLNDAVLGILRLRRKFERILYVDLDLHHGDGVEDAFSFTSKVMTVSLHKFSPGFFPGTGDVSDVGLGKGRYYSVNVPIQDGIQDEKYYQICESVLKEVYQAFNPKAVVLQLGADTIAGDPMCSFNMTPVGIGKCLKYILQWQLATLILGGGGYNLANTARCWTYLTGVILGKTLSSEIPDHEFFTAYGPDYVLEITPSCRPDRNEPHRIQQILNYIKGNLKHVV
Sequence of Human HDAC6 (Q9UBN7 whole entry, canonical isoform): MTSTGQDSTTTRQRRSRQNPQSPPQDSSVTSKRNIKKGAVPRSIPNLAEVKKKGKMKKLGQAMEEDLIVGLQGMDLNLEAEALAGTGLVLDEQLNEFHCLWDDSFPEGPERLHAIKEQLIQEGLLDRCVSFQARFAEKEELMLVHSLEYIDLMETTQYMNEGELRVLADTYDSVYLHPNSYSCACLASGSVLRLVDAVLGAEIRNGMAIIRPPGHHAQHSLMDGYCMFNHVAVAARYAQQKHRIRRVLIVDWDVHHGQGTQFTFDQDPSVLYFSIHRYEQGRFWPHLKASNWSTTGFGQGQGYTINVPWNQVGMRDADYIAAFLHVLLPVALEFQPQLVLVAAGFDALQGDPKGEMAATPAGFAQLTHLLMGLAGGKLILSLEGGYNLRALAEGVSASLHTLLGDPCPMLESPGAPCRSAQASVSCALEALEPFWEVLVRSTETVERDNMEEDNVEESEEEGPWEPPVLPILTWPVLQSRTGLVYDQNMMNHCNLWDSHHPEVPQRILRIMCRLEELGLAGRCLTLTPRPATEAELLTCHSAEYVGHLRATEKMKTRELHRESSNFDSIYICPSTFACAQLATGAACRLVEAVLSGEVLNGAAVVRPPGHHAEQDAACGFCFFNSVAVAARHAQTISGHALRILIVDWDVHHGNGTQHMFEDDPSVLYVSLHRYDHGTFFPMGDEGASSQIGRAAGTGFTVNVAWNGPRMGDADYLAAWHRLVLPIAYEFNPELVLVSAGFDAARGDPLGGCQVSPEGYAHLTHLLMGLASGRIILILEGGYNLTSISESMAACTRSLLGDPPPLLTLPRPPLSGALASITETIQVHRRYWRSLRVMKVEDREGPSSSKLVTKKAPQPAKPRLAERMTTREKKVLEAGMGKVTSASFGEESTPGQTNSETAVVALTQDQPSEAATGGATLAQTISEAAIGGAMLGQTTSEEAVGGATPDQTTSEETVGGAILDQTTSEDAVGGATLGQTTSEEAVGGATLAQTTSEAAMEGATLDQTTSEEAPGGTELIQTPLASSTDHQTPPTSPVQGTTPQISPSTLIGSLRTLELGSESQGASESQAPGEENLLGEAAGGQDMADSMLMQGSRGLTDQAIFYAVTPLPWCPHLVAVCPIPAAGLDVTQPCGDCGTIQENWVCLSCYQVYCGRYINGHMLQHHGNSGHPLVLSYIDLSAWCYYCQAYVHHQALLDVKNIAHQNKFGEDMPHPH

Turning to `Cc1c(CN)c2ccccc2n1Cc1ccc(C(=O)NO)cc1`, the IC50 (usually the concentration that gives 50% inhibition) on Human HDAC1 (setting [1]) was found to be 3.09 µM; on Human HDAC6 (setting [2]), 0.00146 µM. The “HDAC6 Selectivity (HDAC1/HDAC6)” value at Human HDAC6 came to 2116.
As for `O=C(NO)c1ccc(Cn2ccc3ccccc32)cc1` [Compound 2, 4-((1H-Indol-1-yl)methyl)-N-hydroxybenzamide], the concentration for half-maximal inhibition (IC50) on HDAC2 came to 9.19 µM; at HDAC8 (setting [3]), 0.417 µM; at Human HDAC1 (setting [1]) it was 5.83 µM; at HDAC9, 8.16 µM; at Human HDAC6 (setting [2]) it was 0.00975 µM.
For the molecule `Cc1c(C)n(Cc2ccc(C(=O)NO)cc2)c2ccccc12` [Compound 8, 4-((2,3-Dimethyl-1H-indol-1-yl)methyl)-N-hydroxybenzamide], the IC50 on Human HDAC1 (setting [1]) was 12.2 µM; at Human HDAC6 (setting [2]) it was 0.00408 µM.
On to `O=C(NO)c1ccc(Cn2cc(Cc3ccccc3)c3ccccc32)cc1` [Compound 10, 4-((3-Benzyl-1H-indol-1-yl)methyl)-N-hydroxybenzamide], for which the IC50 on HDAC8 (setting [3]) came out at 0.324 µM; at Human HDAC1 (setting [1]) it was 13.2 µM; at Human HDAC6 (setting [2]) it was 0.0293 µM.
With `O=C(NO)c1ccc(Cn2cnc3cncnc32)cc1` [Compound 12, 4-((9H-Purin-9-yl)methyl)-N-hydroxybenzamide], the IC50 on Human HDAC1 (setting [1]) was determined as 0.94 µM; at Human HDAC6 (setting [2]), 0.00348 µM.
The matching figures for `O=C(NO)c1ccc(Cn2cnc3ncncc32)cc1` [Compound 14, 4-((7H-Purin-7-yl)methyl)-N-hydroxybenzamide]: 3.56 µM and 0.0142 µM.
With `CN1CCN(CCc2cn(Cc3ccc(C(=O)NO)cc3)c3ccccc23)CC1` [Compound 17, N-Hydroxy-4-{3-[2-(4-methyl-piperazin-1-yl)-ethyl]-indol-1-ylmethyl}-benzamide], the IC50 at HDAC8 (setting [3]) came out at 0.174 µM; at Human HDAC1 (setting [1]), 1.23 µM; at Human HDAC6 (setting [2]), 0.00294 µM.
On to `Cc1c(CN(C)C)c2ccccc2n1Cc1ccc(C(=O)NO)cc1` [Compound 21, 4-((3-((Dimethylamino)methyl)-2-methyl-1H-indol-1-yl)methyl)-N-hydroxybenzamide], for which the 50% inhibitory concentration (IC50) worked out at 3.09 µM on Human HDAC1 (setting [1]) and 0.00146 µM at Human HDAC6 (setting [2]).
The matching figures for `NC(=O)c1ccc(Cn2ccc3ccccc32)cc1` [Compound 22, 4-((1H-Indol-1-yl)methyl)benzamide]: greater than 30 µM and greater than 30 µM.
The matching figures for `CC(=O)c1ccc(Cn2ccc3ccccc32)cc1` [Compound 23, 1-(4-((1H-Indol-1-yl)methyl)phenyl)ethanone]: greater than 30 µM and greater than 30 µM.
For `O=C(NO)c1ccc(Cn2cnc3ccccc32)cc1` [Compound 27, 4-((1H-Benzo[d]imidazol-1-yl)methyl)-N-hydroxybenzamide.TFA], in that order: 8.54 µM and 0.0294 µM.
In the case of `CS(=O)(=O)NCCc1cn(Cc2ccc(C(=O)NO)cc2)c2ccccc12` [Compound 30, N-Hydroxy-4-((3-(2-(methylsulfonamido)ethyl)-1H-indol-1-yl)methyl)benzamide], the results for the IC50 at Human HDAC1 (setting [1]) and at Human HDAC6 (setting [2]) were 0.623 µM and 0.00017 µM, respectively.
As to `Cc1nc2ccccc2n1Cc1ccc(C(=O)NO)cc1` [Compound 32, N-hydroxy-4-((2-methyl-1H-benzo[d]imidazol-1-yl)methyl)benzamide], the IC50 was found to be 8.79 µM on Human HDAC1 (setting [1]) and 0.0092 µM on Human HDAC6 (setting [2]).
For `CC(=O)NCCCc1nc2ccccc2n1Cc1ccc(C(=O)NO)cc1` [Compound 36, 4-((2-(3-Acetamidopropyl)-1H-benzo[d]imidazol-1-yl)methyl)-N-hydroxybenzamide.TFA], in that order: 14.7 µM and 0.047 µM.
The matching figures for `CN(C)CCc1nc2ccccc2n1Cc1ccc(C(=O)NO)cc1` [Compound 38, 4-((2-(2-(Dimethylamino)ethyl)-1H-benzo[d]imidazol-1-yl)methyl)-N-hydroxybenzamide]: 52.4 µM and 0.126 µM.
For `CC(C)c1nc2ccccc2n1Cc1ccc(C(=O)NO)cc1` [Compound 39, N-Hydroxy-4-((2-isopropyl-1H-benzo[d]imidazol-1-yl)methyl)benzamide], in that order: 27.7 µM and 0.047 µM.
For the molecule `O=C(NO)c1ccc(Cn2cccc2)cc1` [Compound 41, 4-((1H-Pyrrol-1-yl)methyl)-N-hydroxybenzamide], the IC50 on Human HDAC1 (setting [1]) is 5.73 µM; on Human HDAC6 (setting [2]), 0.0313 µM.
The matching figures for `O=C(NO)c1ccc(Cn2cccn2)cc1` [Compound 43, 4-((1H-Pyrazol-1-yl)methyl)-N-hydroxybenzamide]: 1.47 µM and 0.0109 µM.
The matching figures for `O=C(NO)c1ccc(Cc2ccncc2)cc1` [Compound 45, N-Hydroxy-4-(pyridin-4-ylmethyl)benzamide]: 6.47 µM and 0.0358 µM.
For `CN(C)c1ccc(Cc2ccc(C(=O)NO)cc2)cc1` [Compound 47, 4-(4-(Dimethylamino)benzyl)-N-hydroxybenzamide], in that order: 6.87 µM and 0.0119 µM.
Regarding `CN(C)c1cccc(Cc2ccc(C(=O)NO)cc2)c1` [Compound 49, 4-(3-(Dimethylamino)benzyl)-N-hydroxybenzamide], the IC50 at Human HDAC1 (setting [1]) came out at 12.2 µM; at Human HDAC6 (setting [2]) it was 0.0701 µM.
For `CCN(CC)Cc1ccc(C(=O)NO)cc1` [Compound 51, 4-((Diethylamino)methyl)-N-hydroxybenzamide], the IC50 at HDAC8 (setting [3]) is 9.43 µM; on Human HDAC1 (setting [1]) it was greater than 30 µM; on Human HDAC6 (setting [2]), 6.28 µM.
Turning to `CC(C)N(Cc1ccc(C(=O)NO)cc1)C(C)C` [Compound 53, 4-((Diisopropylamino)methyl)-N-hydroxybenzamide], the results for the IC50 on HDAC8 (setting [3]), on Human HDAC1 (setting [1]) and on Human HDAC6 (setting [2]) were 1.92 µM, 23.8 µM and 0.124 µM, respectively.
Take `O=C(NO)c1ccc(CN(c2ccccc2)c2ccccc2)cc1` [Compound 55, 4-((Diphenylamino)methyl)-N-hydroxybenzamide]: the IC50 on HDAC8 (setting [3]) amounted to 2.38 µM; on Human HDAC1 (setting [1]), 6.66 µM; on Human HDAC6 (setting [2]), 4.5 µM. Besides, the “selectivity for HDAC6 vs HDAC8” value on Human HDAC6 is “over 500 fold”.
With `O=C(NO)c1ccc(CN2CCCC2)cc1` [Compound 57, N-Hydroxy-4-(pyrrolidin-1-ylmethyl)benzamide.TFA], the IC50 at HDAC8 (setting [3]) was found to be 1.2 µM; at Human HDAC1 (setting [1]), 29 µM; at Human HDAC6 (setting [2]) it was 0.54 µM.
`COC[C@@H]1CCCN1Cc1ccc(C(=O)NO)cc1` [Compound 59, (S)-N-Hydroxy-4-((2-(methoxymethyl)pyrrolidin-1-yl)methyl)benzamide.TFA]: the IC50 on HDAC8 (setting [3]) is 1.82 µM; on Human HDAC1 (setting [1]), 27.9 µM; on Human HDAC6 (setting [2]) it was 0.15 µM.
The matching figures for `COC[C@H]1CCCN1Cc1ccc(C(=O)NO)cc1` [Compound 61]: 5.59 µM, greater than 30 µM and 1.25 µM.
Regarding `O=C(NO)c1ccc(Cn2ccc3ccccc32)cc1` [drawing 136], the half-maximal inhibitory concentration (IC50) at HDAC2 turned out to be 9.19 µM; at HDAC9, 8.16 µM. Besides, the “HDAC6 Selectivity (HDAC1/HDAC6)” value at Human HDAC6 is reported as 598.
The matching figures for `Cc1cc2ccccc2n1Cc1ccc(C(=O)NO)cc1` [drawing 137]: 8.14 µM, 18.3 µM and 2127.
For `Cc1cn(Cc2ccc(C(=O)NO)cc2)c2ccccc12` [drawing 138], in that order: 11.9 µM, 14.5 µM and 1329.
Regarding `O=C(NO)c1ccc(Cn2cc(Cc3ccccc3)c3ccccc32)cc1` [drawing 140], at Human HDAC6, the “HDAC6 Selectivity (HDAC1/HDAC6)” value was found to be 451.
As to `CN1CCN(CCc2cn(Cc3ccc(C(=O)NO)cc3)c3ccccc23)CC1` [drawing 142], the IC50 on HDAC8 (setting [3]) turned out to be 0.174 µM; at Human HDAC1 (setting [1]), 1.23 µM; on Human HDAC6 (setting [2]), 0.00294 µM. In addition, at Human HDAC6, the “HDAC6 Selectivity (HDAC1/HDAC6)” value came out at 418.
Regarding `O=C(NO)c1ccc(Cn2cnc3cncnc32)cc1` [drawing 143], the “HDAC6 Selectivity (HDAC1/HDAC6)” value on Human HDAC6 was 270.
On to `O=C(NO)c1ccc(Cn2cnc3ncncc32)cc1` [drawing 144], for which the “HDAC6 Selectivity (HDAC1/HDAC6)” value at Human HDAC6 came out at 251.
Still for that read-out and setting: in the case of `O=C(NO)c1ccc(Cc2ccncc2)cc1` [drawing 145] it was 181; in that of `CN(C)c1ccc(Cc2ccc(C(=O)NO)cc2)cc1` [drawing 146], 577.
The same measure, in the same setting: in the case of `O=C(NO)c1ccc(Cn2cccc2)cc1` [drawing 147] it was 183.
The same measure, in the same setting: in the case of `O=C(NO)c1ccc(Cn2cccn2)cc1` [drawing 148] it was 135.
In the case of `O=C(NO)c1ccc(CN2CCCC2)cc1` [drawing 150], the “HDAC6 Selectivity (HDAC1/HDAC6)” value at Human HDAC6 is 54.
Still for that read-out and setting: in the case of `CCN(CC)Cc1ccc(C(=O)NO)cc1` [drawing 153] it was greater than 5.
For the molecule `O=C(NO)c1ccc(Cn2ccc3ccccc32)cc1` [drawing 157], the concentration for half-maximal inhibition (IC50) worked out at 0.417 ± 0.04 µM on HDAC8 (setting [4]), 5.83 ± 0.7 µM on Human HDAC1 (setting [5]) and 0.0097 ± 0.0003 µM at Human HDAC6 (setting [6]). In addition, the BEI on Human HDAC6 amounted to 30.1.
On to `Cc1cc2ccccc2n1Cc1ccc(C(=O)NO)cc1` [drawing 158], for which the results for the IC50 on HDAC8 (setting [4]), on Human HDAC1 (setting [5]) and at Human HDAC6 (setting [6]) were 0.397 ± 0.099 µM, 5.34 ± 0.16 µM and 0.0025 ± 0.0004 µM, respectively. The molecule also displayed a BEI on Human HDAC6 of 30.7.
With `Cc1cn(Cc2ccc(C(=O)NO)cc2)c2ccccc12` [drawing 159], the values for the IC50 on HDAC8 (setting [4]), at Human HDAC1 (setting [5]) and at Human HDAC6 (setting [6]) were 0.911 ± 0.042 µM, 6.79 ± 0.29 µM and 0.0051 ± 0.0008 µM, respectively. Moreover, at Human HDAC6, the BEI amounted to 29.6.
As to `O=C(NO)c1ccc(CN(c2ccccc2)c2ccccc2)cc1` [drawing 162], the IC50 was 2.38 ± 0.25 µM at HDAC8 (setting [4]) and 6.66 ± 0.51 µM on Human HDAC1 (setting [5]). For the same molecule, on Human HDAC6, the BEI is 26.3.
